Data: ChEMBL document CHEMBL1201862, “PubChem BioAssay data set” (2004)
Values joined by “and” are separate entries in the source; they are usually repeats but may differ in a detail not shown here. Equal entries are not always repeated.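 Exposure lasted 48 hours, with cells grown in 96-well plates and compounds tested at five concentrations. GI50 is the concentration that inhibits growth by half.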 Active and inactive are the calls of the source. No stated cut-off is given here; in the data, active = GI50 up to about 1.1 µM and inactive = higher.

Key:
Test in all cases: NCI anticancer screen, dose series, 48 h
[1] = test system: SK-MEL-2
[2] = test system: DMS-273
[3] = test system: NCI-H23
[4] = test system: SK-MEL-28
[5] = test system: M19-MEL
[6] = test system: SR
[7] = test system: HCC 2998
[8] = test system: HOP-62
[9] = test system: K562
[10] = test system: KM-20L2
[11] = test system: RXF 393
[12] = test system: LXFL 529
[13] = test system: NCI-H522
[14] = test system: M14
[15] = test system: OVCAR-4
[16] = test system: U-251
[17] = test system: HOP-92
[18] = test system: RPMI-8226
[19] = test system: NCI-H226
[20] = test system: HCT-15
[21] = test system: LOX IMVI
[22] = test system: KM12
[23] = test system: IGROV-1
[24] = test system: UO-31
[25] = test system: SK-MEL-5
[26] = test system: HL-60
[27] = test system: XF498
[28] = test system: SW-620
[29] = test system: TK-10
[30] = test system: OVCAR-5
[31] = test system: DLD-1
[32] = test system: Malme-3M
[33] = test system: CCRF-CEM
[34] = test system: SNB-19
[35] = test system: OVCAR-3
[36] = test system: SNB-75
[37] = test system: CAKI-1
[38] = test system: SNB-78
[39] = test system: UACC-62
[40] = test system: SK-OV-3
[41] = test system: COLO 205
[42] = test system: MOLT-4
[43] = test system: HT-29
[44] = test system: OVCAR-8
[45] = test system: EKVX
[46] = test system: SF-268
[47] = test system: SF-539
[48] = test system: NCI-H460
[49] = test system: A498
[50] = test system: 786-0
[51] = test system: DMS-114
[52] = test system: UACC-257
[53] = test system: HOP-18
[54] = test system: A549
[55] = test system: SN12C
[56] = test system: SF-295
[57] = test system: ACHN
[58] = test system: PC-3
[59] = test system: MDA-MB-231
[60] = test system: MDA-N
[61] = test system: DU-145
[62] = test system: NCI/ADR-RES
[63] = test system: MDA-MB-435
[64] = test system: HCT-116
[65] = test system: Hs-578T
[66] = test system: MCF7
[67] = test system: T47D
[68] = test system: BT-549

## CNC(=O)CN1CC(=O)N(C)C(=O)C1
[1]
  GI50: > 100 µM (inactive)
[2]
  GI50: > 100 µM (inactive)
[3]
  GI50: > 100 µM (inactive)
[4]
  GI50: > 100 µM (inactive)
[5]
  GI50: > 100 µM (inactive)
[6]
  GI50: > 100 µM (inactive)
[7]
  GI50: > 100 µM (inactive)
[8]
  GI50: > 100 µM (inactive)
[9]
  GI50: > 100 µM (inactive)
[10]
  GI50: > 100 µM (inactive)
[11]
  GI50: > 100 µM (inactive)
[12]
  GI50: > 100 µM (inactive)
[13]
  GI50: > 100 µM (inactive)
[14]
  GI50: > 100 µM (inactive)
[15]
  GI50: > 100 µM (inactive)
[16]
  GI50: > 100 µM (inactive)
[17]
  GI50: > 100 µM (inactive)
[18]
  GI50: > 100 µM (inactive)
[19]
  GI50: > 100 µM (inactive)
[20]
  GI50: > 100 µM
[21]
  GI50: > 100 µM (inactive)
[22]
  GI50: > 100 µM (inactive)
[23]
  GI50: > 100 µM (inactive)
[24]
  GI50: > 100 µM (inactive)
[25]
  GI50: > 100 µM (inactive)
[26]
  GI50: > 100 µM (inactive)
[27]
  GI50: > 100 µM (inactive)
[28]
  GI50: > 100 µM (inactive)
[29]
  GI50: > 100 µM (inactive)
[30]
  GI50: > 100 µM (inactive)
[31]
  GI50: > 100 µM (inactive)
[32]
  GI50: > 100 µM (inactive)
[33]
  GI50: > 100 µM (inactive)
[34]
  GI50: > 100 µM (inactive)
[35]
  GI50: > 100 µM (inactive)
[36]
  GI50: > 100 µM (inactive)
[37]
  GI50: > 100 µM (inactive)
[38]
  GI50: > 100 µM (inactive)
[39]
  GI50: > 100 µM (inactive)
[40]
  GI50: > 100 µM (inactive)
[41]
  GI50: > 100 µM (inactive)
[42]
  GI50: > 100 µM (inactive)

## O=[N+]([O-])c1cccc(C2N3CCCCC3[C@@H]3c4[nH]c5ccccc5c4CCN23)c1 (stereo partly specified)
[1]
  GI50: 10.1 µM (inactive)
[2]
  GI50: 11.8 µM (inactive)
[3]
  GI50: 12.4 µM (inactive)
[4]
  GI50: 16.3 µM (inactive)
[43]
  GI50: 6.82 µM (inactive)
[5]
  GI50: 11.9 µM (inactive)
[44]
  GI50: 31.4 µM (inactive)
[8]
  GI50: 16.3 µM (inactive)
[9]
  GI50: 3.88 µM (inactive)
[10]
  GI50: 11 µM (inactive)
[11]
  GI50: 5.86 µM (inactive)
[45]
  GI50: 23.1 µM (inactive)
[12]
  GI50: 19 µM (inactive)
[14]
  GI50: 14.5 µM (inactive)
[46]
  GI50: 12 µM (inactive)
[47]
  GI50: 14.8 µM (inactive)
[15]
  GI50: 16 µM (inactive)
[16]
  GI50: 14.1 µM (inactive)
[17]
  GI50: 16 µM (inactive)
[18]
  GI50: 10.9 µM (inactive)
[48]
  GI50: 16.4 µM (inactive)
[20]
  GI50: 10.4 µM
[49]
  GI50: 15 µM (inactive)
[23]
  GI50: 14.9 µM (inactive)
[50]
  GI50: 16.9 µM (inactive)
[24]
  GI50: 11.9 µM (inactive)
[25]
  GI50: 14.2 µM (inactive)
[26]
  GI50: 10.1 µM (inactive)
[27]
  GI50: 14 µM (inactive)
[51]
  GI50: 6.9 µM (inactive)
[28]
  GI50: 20 µM (inactive)
[52]
  GI50: 14 µM (inactive)
[29]
  GI50: 14.4 µM (inactive)
[30]
  GI50: 16.9 µM (inactive)
[31]
  GI50: 12.3 µM (inactive)
[32]
  GI50: 2.55 µM (inactive)
[53]
  GI50: 54.6 µM (inactive)
[33]
  GI50: 13.2 µM (inactive)
[34]
  GI50: 19.7 µM (inactive)
[35]
  GI50: 15.7 µM (inactive)
[54]
  GI50: 14 µM (inactive)
[55]
  GI50: 14.5 µM (inactive)
[56]
  GI50: 15.1 µM (inactive)
[37]
  GI50: 28.4 µM (inactive)
[38]
  GI50: 9.79 µM (inactive)
[39]
  GI50: 6.79 µM (inactive)
[40]
  GI50: 17.8 µM (inactive)
[41]
  GI50: 13.2 µM (inactive)
[57]
  GI50: 15.9 µM (inactive)
[42]
  GI50: 5.85 µM (inactive)

## COC(C(=O)C(O)C(C)O)C1Cc2cc3cc(OC4CC(OC(C)=O)C(OC5CC(O)C(OC)C(C)O5)C(C)O4)cc(O)c3c(O)c2C(=O)C1OC1CC(OC2CC(OC3CC(C)(O)C(OC(=O)C(C)C)C(C)O3)C(O)C(C)O2)C(O)C(C)O1 (stereo unspecified)
[1]
  GI50: 8.91 nM (active) and < 10 nM (active)
[2]
  GI50: < 10 nM (active) and 16.9 nM (active)
[58]
  GI50: 0.201 µM (active)
[59]
  GI50: 0.0627 µM (active)
[3]
  GI50: < 17.8 nM (active) and 15.4 nM (active)
[4]
  GI50: < 10 nM (active) and 18.5 nM (active)
[60]
  GI50: 0.112 µM (active)
[45]
  GI50: 10.2 nM (active) and < 10 nM (active)
[61]
  GI50: 0.101 µM (active)
[13]
  GI50: 15.6 nM (active) and < 10 nM (active)
[47]
  GI50: 16.1 nM (active) and < 10 nM (active)
[62]
  GI50: > 60.8 µM (inactive) and 51.9 µM (inactive)
[63]
  GI50: 0.0855 µM (active)
[48]
  GI50: 9.82 nM (active) and < 10 nM (active)
[20]
  GI50: 0.8 µM and 0.935 µM
[64]
  GI50: < 18.4 nM (active) and < 10 nM (active)
[49]
  GI50: 14.5 nM (active) and 8.43 nM (active)
[24]
  GI50: 938 nM (active) and 1.19 µM (inactive)
[25]
  GI50: 20.1 nM (active) and < 17.8 nM (active)
[27]
  GI50: < 10 nM (active) and 8.95 nM (active)
[65]
  GI50: 0.0366 µM (active)
[28]
  GI50: 15.6 nM (active) and 16.2 nM (active)
[52]
  GI50: 13.9 nM (active) and 26.3 nM (active)
[66]
  GI50: < 10 nM (active) and 9.16 nM (active)
[31]
  GI50: 44.3 nM (active) and 50.7 nM (active)
[32]
  GI50: 23.8 nM (active) and < 13.5 nM (active)
[67]
  GI50: 0.124 µM (active)
[53]
  GI50: < 0.01 µM (active)
[68]
  GI50: 0.0202 µM (active)
[54]
  GI50: 10.9 nM (active) and 9.48 nM (active)
[36]
  GI50: < 10 nM (active) and 19.1 nM (active)
[38]
  GI50: 29.1 nM (active) and 24.1 nM (active)
[39]
  GI50: < 10 nM (active) and 16.2 nM (active)
[40]
  GI50: 210 nM (active) and 166 nM (active)
